US20130225839A1, “PREPARATION METHOD OF FOSAMPRENAVIR DERIVATIVES AND RELEVANT INTERMEDIATE THEREOF” (ZHEJIANG JIUHOU PHARMA SCIENCE & TECHNOLOGY CO., LTD., priority 2010, published 2013)
Values after ≈ are worked out from the molar mass of the structure shown.

Legend:
[1] = solubility in water or ethanol; type: physicochemical
[2] = cited from earlier work

SMILES	solubility in ethanol ([1]; ethanol)	solubility in water ([1]; water)	solubility in water at 25° C. [2] [µg/mL]
CC(C)CN(C[C@@H](OP(=O)([O-])[O-])[C@H](Cc1ccccc1)NC(=O)O[C@H]1CCOC1)S(=O)(=O)c1ccc([N+](=O)[O-])cc1.[Na+].[Na+] [sodium (3S)4etrahydrofuran-3-yl(1S,2R)-3-[(4-nitrophenyl)sulfonyl](isobutyl)amino-1-benzyl-2-(phosphonooxy)propyl-carbamate]	soluble	soluble	–
CC(C)CN(C[C@@H](O)[C@H](Cc1ccccc1)NC(=O)O[C@H]1CCOC1)S(=O)(=O)c1ccc(N)cc1 [APV, amprenavir]	–	–	40 (≈ 79.1 µM)
